Where “and” joins values, the source holds several entries; their conditions need not be identical. Identical values can stand only once.
What was measured:
mouse sperm = experiment: Acrosome reaction assay, mouse sperm, zona pellucidae-evoked; assay type: cell-based; conditions: Fig. 2g replicates, 5 μM TDI-10229 or 10 nM TDI-11861
Protocol: Zonae pellucidae were isolated from female mice superovulated by intraperitoneal injection of 10 I.U. […] 3 days before the experiment. 14 h before oocyte isolation, mice were injected with 10 I.U. pregnant mare’s serum gonadotropin. Mice were sacrificed by cervical dislocation and oviducts were dissected. Cumulus-enclosed oocytes were separated from the oviducts and placed into TYH buffer containing 300 μg/ml hyaluronidase. After 15 min, cumulus-free oocytes were transferred into fresh buffer and washed twice. Zonae pellucidae and oocytes were separated by shear forces generated by expulsion from […] pasteur pipettes. Zona pellucidae were counted, transferred into fresh buffer, and heat-solubilized by incubation for 10 min at 65 °C.
(§1) Acrosome reaction was induced by incubating mouse sperm with 50 mouse solubilized zonae pellucidae for 15 min at 37 °C. Human sperm were incubated with 10 μM progesterone for 30 min at 37 °C. […] Samples were air-dried on microscope slides and fixed for 30 minutes in 100% ethanol at room temperature (RT). For acrosome staining, mouse and human sperm were incubated for 30 min in the dark with 5 μg/ml PNA-FITC or 5 μg/ml PSA-FITC, respectively, and counterstained with 2 μg/ml DAPI. After curing, slides were analyzed using a Zeiss LSM 880 Laser Scanning Confocal Microscope; images were captured with two photomultiplier and one Gallium Arsenide Phosphide detector using ZEN Imaging software. For each condition, at least 600 cells were analyzed using ImageJ 1.52.

[1] = molecular target: T1, purified recombinant human sAC protein (Homo sapiens, UniProt Q96PN6); experiment: In vitro adenylyl cyclase activity assay (two-column method);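 for cyclase activity (%): 100% equals DMSO vehicle-treated control activity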; assay type: biochemical; conditions: for cyclase activity (%): Fig. 1c normalized replicates; for cyclase activity: Fig. 1c replicates
T1 construct: human sACt protein was incubated
T1 sequence (Q96PN6 1-469 limits assumed): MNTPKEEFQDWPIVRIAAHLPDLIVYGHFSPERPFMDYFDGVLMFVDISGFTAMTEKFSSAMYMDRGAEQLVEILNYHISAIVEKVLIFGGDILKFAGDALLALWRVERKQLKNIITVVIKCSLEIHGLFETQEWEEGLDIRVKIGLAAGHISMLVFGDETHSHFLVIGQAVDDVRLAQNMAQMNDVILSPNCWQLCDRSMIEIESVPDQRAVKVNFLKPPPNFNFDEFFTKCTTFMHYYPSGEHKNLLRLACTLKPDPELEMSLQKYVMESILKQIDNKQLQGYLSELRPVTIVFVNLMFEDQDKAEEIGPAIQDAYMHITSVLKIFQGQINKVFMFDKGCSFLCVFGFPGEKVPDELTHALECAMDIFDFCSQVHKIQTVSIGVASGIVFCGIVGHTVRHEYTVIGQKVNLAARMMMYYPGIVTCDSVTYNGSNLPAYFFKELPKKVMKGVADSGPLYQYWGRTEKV
Protocol: All in vitro adenylyl cyclase activity assays were performed via the “two-column” method measuring the conversion of [α-^32P] ATP into [^32P] cAMP[54], as previously described. Briefly, human sACt protein was incubated in buffer containing 50 mM Tris-HCl, pH 7.5, 4 mM MgCl2, 2 mM CaCl2, 1 mM ATP, 3 mM DTT, 40 mM NaHCO3 in the presence of the indicated concentrations of different sAC inhibitors or vehicle (1% DMSO).

human sperm [2] = experiment: Flagellar beat frequency of tethered human sperm; assay type: cell-based
Protocol: An inverted dark-field video microscope (IX73; Olympus) with a 10 x objective (mouse sperm) or a 20 x objective (human sperm) (UPLSAPO, NA 0.8; Olympus) was combined with a high-speed camera (ORCA Fusion; Hamamatsu). Dark-field videos were recorded with a frame rate of 200 Hz. The temperature of the heated stage was set to 37 °C (stage top incubator WSKMX; TOKAI HIT). The images were preprocessed with the ImageJ plugin SpermQ Preparator (Gaussian blur with sigma 0.5 px; subtract background method with radius 5 px) and analyzed using the ImageJ plugin SpermQ[57]. The beat frequency was determined from the highest peak in the frequency spectrum of the curvature time course, obtained by Fast Fourier Transform.

human sperm [3] = experiment: Acrosome reaction assay, human sperm, progesterone-evoked; assay type: cell-based; conditions: Fig. 2h replicates, 5 μM TDI-10229 or 10 nM TDI-11861
Protocol: as §1

epididymal mouse sperm = experiment: Ex vivo motility (CASA) of epididymal sperm from inhibitor-treated male mice; assay type: in vivo
Protocol: Sperm movements of 10 fields of at least 200 sperm were examined using computer-assisted sperm analysis (CASA) via Hamilton–Thorne digital image analyzer (IVOS II, Hamilton Thorne Research, Beverly, MA) with the following parameters: 30 frames, frame rate: 60 Hz, cell size: 30–170 μm^2. Ejaculated uterine mouse sperm were recorded without additional dilution. Sperm were considered motile when presenting STR ≥80% and VAP ≥50 μm/s and hyperactivated when presenting VCL ≥270 μm/s, LIN < 50%, and ALH ≥7 μm. Track´s color code: motile (green), progressive (turquoise), hyperactivated (purple), slow (pink), static (red), not counted due to late entry (yellow).

[4] = concentration (uM) -0.52288 [sic]
[5] = concentration (uM) -1.95424 [sic]
[6] = concentration (uM) -2.43136 [sic]
[7] = concentration (uM) -2.90848 [sic]
[8] = concentration (uM) -3.38561 [sic]
[9] = concentration (uM) printed 0.477121
[10] = concentration (uM) printed -1.47712

## Cc1c(Cc2ccccc2)c(-c2cc(Cl)nc(N)n2)nn1C [TDI-10229, reference compound]
Mouse sperm; 5 mM db-cAMP/500 μM IBMX
  Acrosome reacted (%), basal + db-cAMP/IBMX: 27.72% and 28.24% and 29.05% and 27.83% and 24.06%
Mouse sperm; 50 heat-solubilized zona pellucidae
  Acrosome reacted (%), ZP: 22.4% and 26.2% and 28.2% and 15.6% and 20%
Mouse sperm; 90 min capacitating media
  Acrosome reacted (%), basal: 20.3% and 33.8% and 26.7% and 16.5% and 28%
Mouse sperm; zona pellucidae, 5 mM db-cAMP/500 μM IBMX
  Acrosome reacted (%), ZP + db-cAMP/IBMX: 32% and 38.6% and 36.8% and 38% and 41.8%
[1]; concentration (uM) 0
  cyclase activity (%): 9.237% and 13.938% and 16.2416% and 14.0981% and 17.1651% and 16.2955%
  cyclase activity: 4537 and 5556.7 and 5828.8 and 5224.3 and 5509.4 and 5355.1
[1]; [4]
  cyclase activity (%): 31.1405% and 32.9975% and 35.8708% and 34.2006% and 36.7402% and 35.3317%
  cyclase activity: 10764.2 and 10900.3 and 11166.7 and 10456.8 and 10112.3 and 9643.4
[1]; concentration (uM) -1 [sic]
  cyclase activity (%): 63.6617% and 56.9124% and 60.5839% and 60.8807% and 64.5679% and 61.7683%
  cyclase activity: 20009.8 and 17605.2 and 17887.1 and 17401.4 and 16655.7 and 15598.8
[1]; [5]
  cyclase activity (%): 97.3105% and 99.8737% and 91.8341% and 99.076% and 99.9562% and 83.5123%
  cyclase activity: 29576 and 29650 and 26385.2 and 27343.3 and 24976.9 and 20497.1
[1]; [6]
  cyclase activity (%): 102.738% and 99.4561% and 103.778% and 98.5001% and 102.473% and 98.7264%
  cyclase activity: 31119 and 29532.9 and 29633.3 and 27193.4 and 25568.8 and 23924.4
[1]; [7]
  cyclase activity (%): 99.2726% and 96.965% and 102.643% and 103.079% and 106.167% and 104.578%
  cyclase activity: 30133.8 and 28834.5 and 29324.4 and 28385.2 and 26437.3 and 25242.7
[1]; [8]
  cyclase activity (%): 100%
  cyclase activity: 30340.6 and 29685.4 and 28605.8 and 27583.8 and 24987.2 and 24211.3
[1]; [9]
  cyclase activity (%): 2.892% and 2.778% and 4.319% and 3.785% and 3.6574% and 3.195%
  cyclase activity: 2733.4 and 2427.8 and 2586.5 and 2539.8 and 2333.2 and 2403.9
[1]; concentration (uM) printed 1
  cyclase activity (%): 0%
  cyclase activity: 1911.1 and 1649 and 1412.1 and 1554.7 and 1473.2 and 1684.2
[1]; [10]
  cyclase activity (%): 87.3934% and 85.1243% and 83.28% and 86.7752% and 79.7419% and 79.6259%
  cyclase activity: 26756.6 and 25514.8 and 24059 and 24141.5 and 20223.7 and 19621.6
Human sperm [2]; distal 5 µm of flagellum, 5 μM TDI-10229 or 10 nM TDI-11861, mean ± SEM
  Beat frequency, Basal: 12.2 ± 0.8 Hz
Human sperm [2]; distal 5 µm, 25 mM NaHCO3, 5 μM TDI-10229 or 10 nM TDI-11861, mean ± SEM
  Beat frequency, + HCO3-: 14.5 ± 0.6 Hz
Human sperm [3]; 10 μM progesterone
  Acrosome reacted (%), Prog: 8% and 18.1667% and 7.5% and 9% and 9.5% and 17.6667% and 10%
Human sperm [3]; 10 μM progesterone, 5 mM db-cAMP/500 μM IBMX
  Acrosome reacted (%), Prog + db-cAMP/IBMX: 23% and 28.6636% and 15.5% and 15% and 16% and 30.6613% and 17.1667%
Human sperm [3]; 5 mM db-cAMP/500 μM IBMX
  Acrosome reacted (%), basal + db-cAMP/IBMX: 8.5% and 15.8333% and 7.5% and 6.5% and 7% and 21.8333% and 11.3333%
Human sperm [3]; 180 min capacitating media
  Acrosome reacted (%), basal: 6% and 15.1667% and 8% and 7% and 7.5% and 16.3548% and 6.667%
Epididymal mouse sperm; 50 mg/kg oral
  motility of epididymal sperm diluted ex vivo: motile and indistinguishable from sperm from vehicle-treated mice
Epididymal mouse sperm; Fig. 3b replicates, 50 mg/kg oral gavage, 1 hour, diluted 1:100 in inhibitor-free non-capacitating media, CASA, 50 mg/kg
  motility (%): 34.7% and 36.8% and 35.1% and 36.4% and 29.7% and 32.4% and 30.6% and 26% and 32% and 33.4% and 29.4%
Epididymal mouse sperm; Fig. 3d, individual replicates
  motility (%): 19.9% and 28.3% and 25% and 29.5% and 30.2% and 35.4% and 40.7% and 41.4% and 42.3%
